In ChEMBL document CHEMBL1154302, “Cytotoxic acacic acid glycosides from the roots of Albizia coriaria” (J Nat Prod, 2009):

Key:
HCT-116 = assay: Cytotoxicity against human HCT116 cells after 1 hr by MTT assay; type: functional, cell-based; settings: HCT-116, 1 h
HT-29 = assay: Cytotoxicity against human HT-29 cells after 1 hr by MTT assay; type: functional, cell-based; settings: HT-29, 1 h

SMILES | IC50 (HCT-116) [nM] | IC50 (HT-29) [nM]
C=C[C@](C)(CC/C=C(\C)C(=O)O[C@H]1[C@H](O)[C@@H](O)[C@H](O[C@](C)(C=C)CC/C=C(\C)C(=O)O[C@H]2[C@H](O)[C@@H](O)[C@H](O[C@](C)(C=C)CC/C=C(/C)C(=O)O[C@H]3C[C@]4(C(=O)O[C@@H]5O[C@H](CO)[C@@H](O)[C@H](O)[C@H]5O[C@@H]5O[C@@H](C)[C@H](O[C@@H]6O[C@@H](CO)[C@H](O)[C@H]6O)[C@@H](O[C@@H]6O[C@H](CO)[C@@H](O)[C@H](O)[C@H]6O)[C@H]5O)[C@H](O)C[C@]5(C)C(=CC[C@@H]6[C@@]7(C)CC[C@H](O[C@@H]8O[C@H](CO[C@@H]9O[C@H](C)[C@H](O)[C@H](O)[C@H]9O)[C@@H](O)[C@H](O)[C@H]8O[C@@H]8O[C@H](CO)[C@@H](O)[C@H](O)[C@H]8O)C(C)(C)C7CC[C@]65C)[C@@H]4CC3(C)C)O[C@@H]2C)O[C@@H]1C)O[C@@H]1O[C@H](C)[C@@H](O)[C@H](O)[C@H]1O (some centres undefined) [CORIARIOSIDE A] | 4200 | 6700
CC(=O)O[C@H]1C(=O)[C@@]2(C)[C@H]([C@H](OC(=O)c3ccccc3)[C@]3(O)C[C@H](OC(=O)[C@H](O)[C@@H](NC(=O)c4ccccc4)c4ccccc4)C(C)=C1C3(C)C)[C@]1(OC(C)=O)CO[C@@H]1C[C@@H]2O [PACLITAXEL] | 3.5 | 3.4
